Experiments:
Assay type in all cases: in vivo
[1] = system: C57B1/6J mice; assay: Johnsen's score of the testis tissue (level of spermatogenesis)
Experimental: (§1) 2,3,7,8-tetrachlorodibenzo-p-dioxin (TCDD) dissolved in toluene (purity of 95% or more as a result of gas chromatography analysis), manufactured by Chem. Services Inc. in USA, was volatilized with nitrogen to obtain powder. The obtained powder was dissolved in a mixed solvent containing acetone and corn oil with a volume ratio of 1:6. The resulting solution each containing 110, 27.5 and 6.9 μg/kg of TCDD was subcutaneously injected to mice at a volume of 5 ml per body weight. […] The mice were supplied with the feed from 10 days before (pre-administration) to 60 days after administration of TCDD (post-administration).
(§2) Upon completion of the experiment for 60 days, the experimental animals were fasted for 24 hours and anesthetized with ether. Then, they were abdominally incised and blood was gathered from abdominal vena cava. They were sacrificed by the release of blood. Liver, kidneys, testes and epididymides were extracted and all the extracted organs were weighed. Only the testes were separately kept and observed under optical and electron microscopes. For biochemical finding test, serum was separated from blood with a centrifuge and the separated serum was analyzed with an automated blood biochemical analyzer, Dimension (Dupont, USA). Blood was put to another blood gathering bottle and then, analyzed with an automated blood cell analyzer, Celldyn (Abbott, USA).
(§3) The extracted testes were fixed in 10% neutralized formalin buffer for 24 hours and washed with the flowing water. It was subsequently dehydrated with ethanol and cleared with xylene and then, embedded with paraffin. It was sectioned with microtome (microm is HM 440E) to a thickness of 2-3 μm and then, double stained with hematoxylin and eosin to observe under an optical microscope.
For evaluation of the level of spermatogenesis, Johnsen's score was determined from 10 to 1 based on the presence or absence of principal cells arranged according to maturation of spermatogenesis. The basis of Johnsen's score in testes was the following:
10: Perfect spermatogenesis having many sperms, organization of embryonic epithelial cells with a constant thickness, and opened lumen
9: Despite many sperms, significant separation of embryonic epithelial cells from the basement membrane and disruption thereof, or loss of lumen
8: Presence of 5 to less than 10 sperms in the section
7: Many sperm cells without sperms
6: 5 to less than 10 sperm cells without sperms
5: Several or many spermatocytes without sperms and sperm cells
4: Less than 5 spermatocytes without sperms and sperm cells
3: Presence of only spermatogonia as reproductive cells
2: Presence of only Sertoli cells without any reproductive cells
1: No cells in the section of seminiferous tubules

[2] = system: C57B1/6J mice; assay: Optical microscopy of testes (histopathological findings)
Experimental: as §1, §2, §3

[3] = system: C57B1/6J mice; assay: Electron microscopy of testes (cellular microstructures)
Experimental: as §1
as §2, with “(Abbott, USA). […]” for “(Abbott, USA).”

[4] = system: Ovariectomized female B6C3F1 mice; assay: Uterus weight changes by bisphenol A (uterine proliferation); conditions: UDCA 2 mg/day alone, s.c. for 4 days
Experimental: Ovariectomized female B6C3F1 mice of 5 weeks old, the average weight of which was 18 to 22 g and had been bred in CRJ, were purchased. They were acclimated under the constant breeding conditions, i.e. the constant temperature of 24±1° C., the humidity of 60±10% and the light and darkness cycle of 12 hours, for one week and then, utilized in the experiment. The animals were supplied with solid feed purchased from Purina and supplied with water ad libitum. After acclimation, test materials dissolved in corn oil were subcutaneously injected once a day for 4 days. The test materials used herein, stock solutions of bisphenol A and UDCA were prepared using ethanol. 2 mg of bisphenol A dissolved in 0.2 ml of corn oil was administered to the mice alone or in combination with UDCA once a day. The administration dose of UDCA was 0.2 or 2.0 mg, and corn oil was administered to the solvent control.
The results are expressed as Mean±Standard Deviation values. ANOVA was performed to evaluate the mean distribution of administered groups. In case that the significance was recognized in ANOVA, the Student's t-test was carried out in the levels of p<0.05 and p<0.01.

Row | SMILES | Johnsen's score of the testis tissue ([1]; TCDD 6.9 μg/kg alone, score 10 to 1) | Johnsen's score of the testis tissue ([1]; TCDD 27.5 μg/kg alone, score 10 to 1) | seminiferous tubules, optical microphotograph ([2]; TCDD 27.5 μg/kg alone, FIG. 2) | heads of sperms, electron microphotograph ([3]; TCDD 27.5 μg/kg alone, FIG. 9) | Johnsen's score of the testis tissue ([1]; TCDD 6.9 μg/kg + UDCA 0.125 wt % in feed) | Johnsen's score of the testis tissue ([1]; TCDD 6.9 μg/kg + UDCA 0.250 wt % in feed) | Johnsen's score of the testis tissue ([1]; TCDD 6.9 μg/kg + UDCA 0.500 wt % in feed) | Johnsen's score of the testis tissue ([1]; TCDD 27.5 μg/kg + UDCA 0.125 wt % in feed) | Johnsen's score of the testis tissue ([1]; TCDD 27.5 μg/kg + UDCA 0.250 wt % in feed) | Johnsen's score of the testis tissue ([1]; TCDD 27.5 μg/kg + UDCA 0.500 wt % in feed) | seminiferous tubules, optical microphotograph ([2]; TCDD 27.5 μg/kg + 0.5% by weight of UDCA, FIG. 3) | histopathological findings of testes under an optical microscope ([2]; group exposed to UDCA (with TCDD)) | heads of sperms, electron microphotograph ([3]; TCDD 27.5 μg/kg + 0.5% by weight of UDCA, FIG. 10) | Mean weight of uterus ± SD [4]
1 | Clc1cc2c(cc1Cl)Oc1cc(Cl)c(Cl)cc1O2 [TCDD, 2,3,7,8-tetrachlorodibenzo-p-dioxin] | 8.06 ± 0.09 | 7.42 ± 0.11 | remarkably reduced spermatogenesis was observed | Heads of sperms were frequently observed in cytoplasmic vacuoles of Sertoli cells |  |  |  |  |  |  |  |  |  | 
2 | C[C@H](CCC(=O)O)[C@H]1CC[C@H]2[C@@H]3[C@@H](O)C[C@@H]4C[C@H](O)CC[C@]4(C)[C@H]3CC[C@]12C [UDCA, 3α, 7β-dihydroxy-5β-cholanoic acid] |  |  |  |  | 8.7 ± 0.09 | 8.84 ± 0.10 | 9.10 ± 0.08 | 8.40 ± 0.10 | 8.42 ± 0.08 | 8.81 ± 0.07 | normal seminiferous tubules were observed | seminiferous tubules were found to have the similar shape to that of the solvent control | Normal shapes of sperm heads were retained | 6.96 ± 1.34

Source: patent US20040029965A1, “Formulations for reducing or eliminating toxicity of enviromental hormones containing ursodeoxycholic acid” (priority 2000, published 2004)
